Test results as given in US10568893B2, “Methods for treating inflammation, autoimmune disorders and pain” (BRIGHAM YOUNG UNIVERSITY, priority 2013, dated 2020).

Columns and labels:
[1] = system: IL1A (Interleukin-1 alpha); test: Inflammation gene regulation, mRNA q-PCR panel; type: cell-based; details: mRNA by q-PCR, 8 hours treatment, primary human MSC (dendritic cells also described); CSA-13 at 5.0 μM
Source text: (§1) Cells were purchased from Lonza.com and used fresh for each test using recommended media and culture conditions. After treatment, mRNA was isolated using Qiagen RNeasy Mini Kit®, and quantified using a NanoDrop 2000® by UV at 260 nm and 260/280 ratio for purity. cDNA was made using a First Strand Kit® from SABiosciences and processed for real time PCR using a kit from the same company for selected analysis of wound healing pathways. Results from q-PCR were uploaded to the SABiosciences site and to Ingenuity.com web site for analysis and pathway mapping. On day 1, primary human MSC cells were plated at 200,000 cells/well using 6-well plates with 3 ml of recommended media—hMSC Basal Medium+BulletKit (50 ml Growth Supplement, 10 ml L-Glutamine and 0.5 ml Gentamicin Sulfate Amphotercin-B) for 24 hours. Only early passages of cells were used, and never from frozen stock. On day 2, cells were treated with compounds dissolved in DMSO diluted 1:1000 or more to avoid effects of the solvent. […] Treatment lasted 8 hours, and was followed by RNA isolation using QIAGEN RNeasy Mini Kit® (74104). RNA was measured at 260/280 nm using a NanoDrop 2000® and normalized to 2.4 ng per well, cDNA preparation was done using QIAGEN First Strand kit 330401. q-PCR was run as absolute quantification and threshold set at 0.1 units. Dendritic cells were plated at 500,000 cells/well using 24-well plate with 500 μl of Lonza LGM-3 Complete Growth Medium with and without compound. Treatment lasted 8 hours, and was followed by RNA isolation using QIAGEN RNeasy Mini Kit® (74104). RNA was measured at 260/280 nm using NanoDrop2000® and normalized to 2.4 ng per well, cDNA preparation was done using QIAGEN First Strand kit 330401. PCR was run as absolute quantification and threshold set at 0.1 units.

[2] = system: IL1B (Interleukin-1 beta); test: Inflammation gene regulation, mRNA q-PCR panel; type: cell-based; details: mRNA by q-PCR, 8 hours treatment, primary human MSC (dendritic cells also described); CSA-13 at 5.0 μM
Source text: as §1

[3] = system: IRAK2 (Interleukin-1 receptor-associated kinase 2); test: Inflammation gene regulation, mRNA q-PCR panel; type: cell-based; details: mRNA by q-PCR, 8 hours treatment, primary human MSC (dendritic cells also described); CSA-13 at 5.0 μM
Source text: as §1

[4] = system: NFKB1 (Nuclear factor of kappa light polypeptide gene enhancer in B-cells 1); test: Inflammation gene regulation, mRNA q-PCR panel; type: cell-based; details: mRNA by q-PCR, 8 hours treatment, primary human MSC (dendritic cells also described); CSA-13 at 5.0 μM
Source text: as §1

[5] = system: NFKB2 (Nuclear factor of kappa light polypeptide gene enhancer in B-cells 2); test: Inflammation gene regulation, mRNA q-PCR panel; type: cell-based; details: mRNA by q-PCR, 8 hours treatment, primary human MSC (dendritic cells also described); CSA-13 at 5.0 μM
Source text: as §1

[6] = system: NFKBIA (Nuclear factor of kappa light polypeptide gene enhancer in B-cells inhibitor, alpha); test: Inflammation gene regulation, mRNA q-PCR panel; type: cell-based; details: mRNA by q-PCR, 8 hours treatment, primary human MSC (dendritic cells also described); CSA-13 at 5.0 μM
Source text: as §1

[7] = system: TLR2 (Toll-like receptor 2); test: Inflammation gene regulation, mRNA q-PCR panel; type: cell-based; details: mRNA by q-PCR, 8 hours treatment, primary human MSC (dendritic cells also described); CSA-13 at 5.0 μM
Source text: as §1

[8] = system: TLR4 (Toll-like receptor 4); test: Inflammation gene regulation, mRNA q-PCR panel; type: cell-based; details: mRNA by q-PCR, 8 hours treatment, primary human MSC (dendritic cells also described); CSA-13 at 5.0 μM
Source text: as §1

[9] = system: TLR6 (Toll-like receptor 6); test: Inflammation gene regulation, mRNA q-PCR panel; type: cell-based; details: mRNA by q-PCR, 8 hours treatment, primary human MSC (dendritic cells also described); CSA-13 at 5.0 μM
Source text: as §1

[10] = system: TLR8 (Toll-like receptor 8); test: Inflammation gene regulation, mRNA q-PCR panel; type: cell-based; details: mRNA by q-PCR, 8 hours treatment, primary human MSC (dendritic cells also described); CSA-13 at 5.0 μM
Source text: as §1

[11] = system: TLR9 (Toll-like receptor 9); test: Inflammation gene regulation, mRNA q-PCR panel; type: cell-based; details: mRNA by q-PCR, 8 hours treatment, primary human MSC (dendritic cells also described); CSA-13 at 5.0 μM
Source text: as §1

[12] = system: TNF (Tumor necrosis factor); test: Inflammation gene regulation, mRNA q-PCR panel; type: cell-based; details: mRNA by q-PCR, 8 hours treatment, primary human MSC (dendritic cells also described); CSA-13 at 5.0 μM
Source text: as §1

[13] = system: TNFRSF1A (Tmor necrosis factor receptor superfamily member 1A); test: Inflammation gene regulation, mRNA q-PCR panel; type: cell-based; details: mRNA by q-PCR, 8 hours treatment, primary human MSC (dendritic cells also described); CSA-13 at 5.0 μM
Source text: as §1

[14] = system: alveolar bone loss; details: topical application; cited from earlier work

Compound | Fold Regulation IL1A [1] | Fold Regulation IL1B [2] | Fold Regulation IRAK2 [3] | Fold Regulation NFKB1 [4] | Fold Regulation NFKB2 [5] | Fold Regulation NFKBIA [6] | Fold Regulation TLR2 [7] | Fold Regulation TLR4 [8] | Fold Regulation TLR6 [9] | Fold Regulation TLR8 [10] | Fold Regulation TLR9 [11] | Fold Regulation TNF [12] | Fold Regulation TNFRSF1A [13] | Alveolar bone loss [14]
CCCCCCCCOC(=O)CC[C@@H](C)[C@H]1CC[C@H]2[C@@H]3[C@H](OC(=O)CCN)C[C@@H]4C[C@H](OC(=O)CCN)CC[C@]4(C)[C@H]3C[C@H](OC(=O)CCN)[C@]12C [CSA-44] | −6.0325 | −28.5329 | −31.8021 | −3.2891 | −2.2766 | −52.206 | −15.7179 | −2.977 | −2.392 | −8.2256 | −1.8905 | −25.9588 | −2.2461 | –
CCCCCN(CCCCC)CCC[C@@H](C)[C@H]1CC[C@H]2[C@@H]3[C@H](OCCCN)C[C@@H]4C[C@H](OCCCN)CC[C@]4(C)[C@H]3C[C@H](OCCCN)[C@]12C [CSA-90] | −6.96 | −3.6734 | −52.0069 | −4.718 | −2.5474 | −26.0352 | −13.6933 | −3.4278 | −2.0885 | −4.1972 | −1.8613 | −4.8514 | −7.3196 | –
CN/C(=N/CCSCc1nc[nH]c1C)NC#N [cimetidine] | – | – | – | – | – | – | – | – | – | – | – | – | – | reduce alveolar bone loss
